In patent publication US20240018157A1, “CYCLIC COMPOUNDS AND METHODS OF USING SAME” (Schrödinger, Inc., priority 2019, published 2024):

biological target: full-length MALT1 protein His-MALT1(1-824) (Homo sapiens (Human), UniProt Q9UDY8); assay: MALT1 protease assay, Assay 2 (1 nM MALT1, Ac-LRSR-AMC substrate); type: biochemical; settings: 1 nM MALT1, 50 μM Ac-LRSR-AMC, 2 h pre-incubation, 8 hr incubation at RT
Method: MALT1 protease activity was assessed in an in vitro assay using a tetrapeptide as substrate and full-length MALT1 protein His-MALT1(1-824) purified from baculovirus-infected insect cells.
The final assay buffer includes 1 nM (Assay 2) or 2 nM (Assay 1) of MALT1 full-length protein, 50 μM Ac-LRSR-AMC substrate, 50 mM Tris pH 7.5, 600 mM Sodium Citrate, 1 mM DTT, 1 mM EDTA, and 0.05% BSA in 384-well plate format using black microtiter square well plates (Optiplate 384-F, Perkin Elmer).
Test compounds were dissolved in 100% DMSO at stock of 10 mM, with final DMSO concentration 0.1%. Test compounds were pre-incubated with MALT1 protein for 2 h at room temperature. Substrate was added after the pre-incubation and fluorescence signal was measured using Envision at excitation 355 nm and emission 460 nm after 8 hr incubation at RT.
The fluorescence units were transformed to percentage of remaining activity by using the high control (HC, median of fluorescence signal from wells containing MALT1 protein, substrate, and DMSO) and low control (LC, median of fluorescence signal from wells with substrate only) with the formula below: […]
IC50 and Hill coefficient were obtained using Graph Pad Prism (Graph Pad software, Inc, USA) with non-linear regression analysis.

full-length MALT1 protein His-MALT1(1-824), sequence (Q9UDY8 whole entry): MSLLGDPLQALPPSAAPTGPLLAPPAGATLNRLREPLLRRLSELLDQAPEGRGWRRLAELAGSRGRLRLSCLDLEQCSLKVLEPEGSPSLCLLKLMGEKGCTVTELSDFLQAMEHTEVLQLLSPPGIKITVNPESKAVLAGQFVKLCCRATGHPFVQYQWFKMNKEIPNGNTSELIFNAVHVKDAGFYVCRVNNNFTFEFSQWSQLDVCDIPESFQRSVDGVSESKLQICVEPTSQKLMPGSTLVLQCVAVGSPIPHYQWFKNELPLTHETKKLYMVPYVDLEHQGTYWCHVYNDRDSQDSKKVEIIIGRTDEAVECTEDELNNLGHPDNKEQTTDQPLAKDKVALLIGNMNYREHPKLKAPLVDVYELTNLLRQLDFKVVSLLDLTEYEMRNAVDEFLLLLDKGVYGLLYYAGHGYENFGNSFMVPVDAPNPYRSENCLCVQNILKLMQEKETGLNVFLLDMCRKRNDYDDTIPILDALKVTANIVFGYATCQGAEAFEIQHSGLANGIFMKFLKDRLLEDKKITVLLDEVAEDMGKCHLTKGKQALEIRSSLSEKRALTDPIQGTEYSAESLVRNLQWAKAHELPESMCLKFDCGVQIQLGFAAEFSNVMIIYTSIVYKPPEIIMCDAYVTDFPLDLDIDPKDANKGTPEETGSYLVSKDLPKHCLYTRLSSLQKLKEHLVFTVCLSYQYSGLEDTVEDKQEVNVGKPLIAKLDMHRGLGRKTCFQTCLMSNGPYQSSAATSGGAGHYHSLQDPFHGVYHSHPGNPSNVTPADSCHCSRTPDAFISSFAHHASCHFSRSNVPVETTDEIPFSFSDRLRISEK

Row | SMILES | IC50 [nM]
1 | CN1CC(Oc2cc(NC(=O)N3C[C@@](C)(C(F)(F)F)c4c3cnc3cc(Cl)nn43)cn(C(F)F)c2=O)C1 [compound 110, (R)-2-chloro-N-(1-(difluoromethyl)-5-((1-methylazetidin-3-yl)oxy)-6-oxo-1,6-dihydropyridin-3-yl)-8-methyl-8-(trifluoromethyl)-7,8-dihydro-6H-pyrazolo[1,5-a]pyrrolo[2,3-e]pyrimidine-6-carboxamide] | 100 to 1000
2 | CNc1nnc(C(F)(F)F)cc1NC(=O)N1C[C@@](C)(C(F)(F)F)c2c1cnc1cc(Cl)nn21 [compound 112, (R)-2-chloro-8-methyl-N-(3-(methylamino)-6-(trifluoromethyl)pyridazin-4-yl)-8-(trifluoromethyl)-7,8-dihydro-6H-pyrazolo[1,5-a]pyrrolo[2,3-e]pyrimidine-6-carboxamide] | 100 to 1000
3 | CN1CC(Oc2cc(NC(=O)N3C[C@@](C)(C(F)(F)F)c4c3cnc3cc(Cl)nn43)cc(C(F)F)n2)C1 [compound 130, (R)-2-chloro-N-(2-(difluoromethyl)-6-((1-methylazetidin-3-yl)oxy)pyridin-4-yl)-8-methyl-8-(trifluoromethyl)-7,8-dihydro-6H-pyrazolo[1,5-a]pyrrolo[2,3-e]pyrimidine-6-carboxamide] | 100 to 1000
4 | CNc1cc(NC(=O)N2C[C@@](C)(C(F)(F)F)c3c2cnc2cc(Cl)nn32)cnc1-n1nccn1 [compound 132, (R)-2-chloro-8-methyl-N-(5-(methylamino)-6-(2H-1,2,3-triazol-2-yl)pyridin-3-yl)-8-(trifluoromethyl)-7,8-dihydro-6H-pyrazolo[1,5-a]pyrrolo[2,3-e]pyrimidine-6-carboxamide] | 100 to 1000
5 | C[C@@]1(C(F)(F)F)CN(C(=O)Nc2cc(C(F)F)nnc2C#N)c2cnc3cc(Cl)nn3c21 [compound 143, (R)-2-chloro-N-(3-cyano-6-(difluoromethyl)pyridazin-4-yl)-8-methyl-8-(trifluoromethyl)-7,8-dihydro-6H-pyrazolo[1,5-a]pyrrolo[2,3-e]pyrimidine-6-carboxamide] | 100 to 1000
6 | C[C@@]1(C(F)(F)F)CN(C(=O)Nc2cc(C(F)F)nnc2C(N)=O)c2cnc3cc(Cl)nn3c21 [compound 148, (R)-N-(3-carbamoyl-6-(difluoromethyl)pyridazin-4-yl)-2-chloro-8-methyl-8-(trifluoromethyl)-7,8-dihydro-6H-pyrazolo[1,5-a]pyrrolo[2,3-e]pyrimidine-6-carboxamide] | 100 to 1000
7 | Cn1cc(NC(=O)N2C[C@@](C)(C(F)(F)F)c3c2cnc2cc(Cl)nn32)cn1 [compound 164, (R)-2-chloro-8-methyl-N-(1-methyl-1H-pyrazol-4-yl)-8-(trifluoromethyl)-7,8-dihydro-6H-pyrazolo[1,5-a]pyrrolo[2,3-e]pyrimidine-6-carboxamide] | 100 to 1000
8 | C[C@@]1(C(F)(F)F)CN(C(=O)NC2CCC3(CC2)CC3)c2cnc3cc(Cl)nn3c21 [compound 172, (R)-2-chloro-8-methyl-N-(spiro[2.5]octan-6-yl)-8-(trifluoromethyl)-7,8-dihydro-6H-pyrazolo[1,5-a]pyrrolo[2,3-e]pyrimidine-6-carboxamide] | 100 to 1000
9 | CC(C)(O)c1cnn(-c2ncc(NC(=O)N3C[C@@](C)(C(F)(F)F)c4c3cnc3cc(Cl)nn43)cc2Cl)n1 [compound 180, (R)-2-chloro-N-(5-chloro-6-(4-(2-hydroxypropan-2-yl)-2H-1,2,3-triazol-2-yl)pyridine-3-yl)-8-methyl-8-(trifluoromethyl)-7,8-dihydro-6H-pyrazolo[1,5-a]pyrrolo[2,3-e]pyrimidine-6-carboxamide] | 100 to 1000
10 | C[C@@]1(C(F)(F)F)CN(C(=O)Nc2cnc(C(=O)N3CCC3)c(C(F)F)c2)c2cnc3cc(Cl)nn3c21 [compound 203, (R)-N-(6-(azetidine-1-carbonyl)-5-(difluoromethyl)pyridin-3-yl)-2-chloro-8-methyl-8-(trifluoromethyl)-7,8-dihydro-6H-pyrazolo[1,5-a]pyrrolo[2,3-e]pyrimidine-6-carboxamide] | 100 to 1000

Second part, the compound after the results:

Row | IC50 [nM] | SMILES
11 | 100 to 1000 | C[C@@]1(C(F)(F)F)CN(C(=O)Nc2ccnc(C(F)(F)F)c2F)c2cnc3cc(Cl)nn3c21 [compound 100, (R)-2-chloro-N-(3-fluoro-2-(trifluoromethyl)pyridin-4-yl)-8-methyl-8-(trifluoromethyl)-7,8-dihydro-6H-pyrazolo[1,5-a]pyrrolo[2,3-e]pyrimidine-6-carboxamide]
12 | 100 to 1000 | CN(C)c1cc(NC(=O)N2C[C@@](C)(C(F)(F)F)c3c2cnc2cc(Cl)nn32)cnn1 [compound 101, (R)-2-chloro-N-(6-(dimethylamino)pyridazin-4-yl)-8-methyl-8-(trifluoromethyl)-7,8-dihydro-6H-pyrazolo[1,5-a]pyrrolo[2,3-e]pyrimidine-6-carboxamide]
13 | 100 to 1000 | C[C@@]1(C(F)(F)F)CN(C(=O)Nc2cc(C(F)F)on2)c2cnc3cc(Cl)nn3c21 [compound 102, (R)-2-chloro-N-(5-(difluoromethyl)isoxazol-3-yl)-8-methyl-8-(trifluoromethyl)-7,8-dihydro-6H-pyrazolo[1,5-a]pyrrolo[2,3-e]pyrimidine-6-carboxamide]
14 | 10 to 100 | C[C@@]1(C(F)(F)F)CN(C(=O)Nc2cc(C(F)F)ncn2)c2cnc3cc(Cl)nn3c21 [compound 106, (R)-2-chloro-N-(6-(difluoromethyl)pyrimidin-4-yl)-8-methyl-8-(trifluoromethyl)-7,8-dihydro-6H-pyrazolo[1,5-a]pyrrolo[2,3-e]pyrimidine-6-carboxamide]
15 | 10 to 100 | C[C@@]1(C(F)(F)F)CN(C(=O)Nc2cc(C(F)F)n[nH]2)c2cnc3cc(Cl)nn3c21 [compound 107, (R)-2-chloro-N-(3-(difluoromethyl)-1H-pyrazol-5-yl)-8-methyl-8-(trifluoromethyl)-7,8-dihydro-6H-pyrazolo[1,5-a]pyrrolo[2,3-e]pyrimidine-6-carboxamide]
16 | 100 to 1000 | C[C@@H](N)COc1cc(NC(=O)N2C[C@@](C)(C(F)(F)F)c3c2cnc2cc(Cl)nn32)cn(C(F)F)c1=O [compound 109, (R)-N-(5-((R)-2-aminopropoxy)-1-(difluoromethyl)-6-oxo-1,6-dihydropyridin-3-yl)-2-chloro-8-methyl-8-(trifluoromethyl)-7,8-dihydro-6H-pyrazolo[1,5-a]pyrrolo[2,3-e]pyrimidine-6-carboxamide]
17 | 10 to 100 | CC1(C)CN=C(c2ncc(NC(=O)N3C[C@@](C)(C(F)(F)F)c4c3cnc3cc(Cl)nn43)cc2Cl)O1 [compound 118]
18 | 10 to 100 | CN1CC(Oc2cc(NC(=O)N3C[C@@](C)(C(F)(F)F)c4c3cnc3cc(Cl)nn43)cc(C(F)(F)F)n2)C1 [compound 121, (R)-2-chloro-8-methyl-N-(2-((1-methylazetidin-3-yl)oxy)-6-(trifluoromethyl)pyridin-4-yl)-8-(trifluoromethyl)-7,8-dihydro-6H-pyrazolo[1,5-a]pyrrolo[2,3-e]pyrimidine-6-carboxamide]
19 | 10 to 100 | C[C@@]1(C(F)(F)F)CN(C(=O)Nc2cc(C(F)(F)F)n[nH]2)c2cnc3cc(Cl)nn3c21 [compound 131, (R)-2-chloro-8-methyl-8-(trifluoromethyl)-N-(3-(trifluoromethyl)-1H-pyrazol-5-yl)-7,8-dihydro-6H-pyrazolo[1,5-a]pyrrolo[2,3-e]pyrimidine-6-carboxamide]
20 | 10 to 100 | CC(C)(O)Cn1ccc(-c2ncc(NC(=O)N3C[C@@](C)(C(F)(F)F)c4c3cnc3cc(F)nn43)cc2C(F)F)n1 [compound 162, (R)-N-(5-(difluoromethyl)-6-(1-(2-hydroxy-2-methylpropyl)-1H-pyrazol-3-yl)pyridin-3-yl)-2-fluoro-8-methyl-8-(trifluoromethyl)-7,8-dihydro-6H-pyrazolo[1,5-a]pyrrolo[2,3-e]pyrimidine-6-carboxamide]
21 | 10 to 100 | Cc1cn2ccc3c(c2n1)C(C)(C(F)(F)F)CN3C(=O)Nc1cnc(-n2nccn2)c(Cl)c1 (stereo not shown) [compound 193, N-(5-chloro-6(2H-1,2,3-triazol-2-yl)pyridin-3-yl)-2,9-dimethyl-9-(trifluoromethyl)-8,9-dihydro-7H-imidazo[1,2-a]pyrrolo[3,2-c]pyridine-7-carboxamide]
22 | 10 to 100 | CN1CC[C@H](Oc2cc(OC(F)F)cc(NC(=O)N3C[C@@](C)(C(F)(F)F)c4c3cnc3cc(Cl)nn43)n2)C1 [compound 198, (R)-2-chloro-N-(4-(difluoromethoxy)-6-(((S)-1-methylpyrrolidin-3-yl)oxy)pyridin-2-yl)-8-methyl-8-(trifluoromethyl)-7,8-dihydro-6H-pyrazolo[1,5-a]pyrrolo[2,3-e]pyrimidine-6-carboxamide]
